Test results from paper PMC12477080, “Polychlorinated biphenyls (PCBs) interact with drug metabolism in vivo” (Archives of Toxicology, 2025).

Test: Stability of substrates and metabolites in quality control samples (benchtop, autosampler, freeze-thaw)
Format: physicochemical
Conditions: for Autosampler stability (24 h) Av. Accuracy (%): 10° C for 24 hours in the autosampler; for 3x freeze-thaw Av. Accuracy (%): after three freeze-thaw cycles; for Benchtop stability (19 h) Ac. Accuracy (%): room temperature for 19 hours
Source text: The method was validated for intra- and interday accuracy and precision, stability, and matrix effects. […] Validation details are provided in Supplementary Tables 5–7 and supplemental Fig. 3. Glucuronidase/sulfatase digests were used to isolate CYP-specific metabolic activities, reducing interference from polymorphic UDP-glucuronosyltransferase (UGT) and sulfotransferase isoforms.
Supplemental table 6: Stability of the substrates and metabolites. Quality control samples were left at room temperature for 19 hours (benchtop stability) and at 10° C for 24 hours in the autosampler (autosampler stability) or were measured after three freeze-thaw cycles. Stability samples were measured against a freshly prepared set of calibrators and quality control samples.

Compound: Cc1cccc(Nc2ccncc2S(=O)(=O)NC(=O)NC(C)C)c1 [torsemide, reference compound]
- Autosampler stability (24 h) Av. Accuracy (%) (QC conc. 1 ng/ml): 105,13%
- 3x freeze-thaw Av. Accuracy (%) (QC conc. 1 ng/ml): 102,74%
- Benchtop stability (19 h) Ac. Accuracy (%) (QC conc. 1 ng/ml): 97,46%
- Autosampler stability (24 h) Av. Accuracy (%) (QC conc. 2 ng/ml): 108,32%
- 3x freeze-thaw Av. Accuracy (%) (QC conc. 2 ng/ml): 105,85%
- Benchtop stability (19 h) Ac. Accuracy (%) (QC conc. 2 ng/ml): 107,17%
- Autosampler stability (24 h) Av. Accuracy (%) (QC conc. 6 ng/ml): 108,92%
- 3x freeze-thaw Av. Accuracy (%) (QC conc. 6 ng/ml): 106,12%
- Benchtop stability (19 h) Ac. Accuracy (%) (QC conc. 6 ng/ml): 107,51%
- Autosampler stability (24 h) Av. Accuracy (%) (QC conc. 240 ng/ml): 109,92%
- 3x freeze-thaw Av. Accuracy (%) (QC conc. 240 ng/ml): 103,96%
- Benchtop stability (19 h) Ac. Accuracy (%) (QC conc. 240 ng/ml): 108,15%
- Autosampler stability (24 h) Av. Accuracy (%) (QC conc. 600 ng/ml): 97,91%
- 3x freeze-thaw Av. Accuracy (%) (QC conc. 600 ng/ml): 96,67%
- Benchtop stability (19 h) Ac. Accuracy (%) (QC conc. 600 ng/ml): 99,27%

Compound: Cn1c(=O)[nH]c2ncn(C)c2c1=O [Paraxanthine]
- Autosampler stability (24 h) Av. Accuracy (%) (QC conc. 10 ng/ml): 96,28%
- 3x freeze-thaw Av. Accuracy (%) (QC conc. 10 ng/ml): 96,57%
- Benchtop stability (19 h) Ac. Accuracy (%) (QC conc. 10 ng/ml): 89,99%
- Autosampler stability (24 h) Av. Accuracy (%) (QC conc. 30 ng/ml): 105,74%
- 3x freeze-thaw Av. Accuracy (%) (QC conc. 30 ng/ml): 103,75%
- Benchtop stability (19 h) Ac. Accuracy (%) (QC conc. 30 ng/ml): 105,38%
- Autosampler stability (24 h) Av. Accuracy (%) (QC conc. 1200 ng/ml): 105,06%
- 3x freeze-thaw Av. Accuracy (%) (QC conc. 1200 ng/ml): 100,61%
- Benchtop stability (19 h) Ac. Accuracy (%) (QC conc. 1200 ng/ml): 103,5%
- Autosampler stability (24 h) Av. Accuracy (%) (QC conc. 3000 ng/ml): 93,91%
- 3x freeze-thaw Av. Accuracy (%) (QC conc. 3000 ng/ml): 92,32%
- Benchtop stability (19 h) Ac. Accuracy (%) (QC conc. 3000 ng/ml): 94,2%

Compound: O=C1Nc2ccc(Cl)cc2[C@@](C#CC2CC2)(C(F)(F)F)O1 [efavirenz, reference compound]
- Autosampler stability (24 h) Av. Accuracy (%) (QC conc. 0,63 ng/ml): 109,58%
- 3x freeze-thaw Av. Accuracy (%) (QC conc. 0,63 ng/ml): 124,41%
- Benchtop stability (19 h) Ac. Accuracy (%) (QC conc. 0,63 ng/ml): 92,21%
- Autosampler stability (24 h) Av. Accuracy (%) (QC conc. 150 ng/ml): 115,3%
- 3x freeze-thaw Av. Accuracy (%) (QC conc. 150 ng/ml): 112,08%
- Benchtop stability (19 h) Ac. Accuracy (%) (QC conc. 150 ng/ml): 111,5%
- Autosampler stability (24 h) Av. Accuracy (%) (QC conc. 375 ng/ml): 106,16%
- 3x freeze-thaw Av. Accuracy (%) (QC conc. 375 ng/ml): 107,17%
- Benchtop stability (19 h) Ac. Accuracy (%) (QC conc. 375 ng/ml): 104,9%
- Autosampler stability (24 h) Av. Accuracy (%) (QC conc. 1,25 ng/ml): 114,46%
- 3x freeze-thaw Av. Accuracy (%) (QC conc. 1,25 ng/ml): 117,78%
- Benchtop stability (19 h) Ac. Accuracy (%) (QC conc. 1,25 ng/ml): 102,48%
- Autosampler stability (24 h) Av. Accuracy (%) (QC conc. 3,75 ng/ml): 114,56%
- 3x freeze-thaw Av. Accuracy (%) (QC conc. 3,75 ng/ml): 111,15%
- Benchtop stability (19 h) Ac. Accuracy (%) (QC conc. 3,75 ng/ml): 107,06%

Compound: O=C1Nc2c(O)cc(Cl)cc2[C@@](C#CC2CC2)(C(F)(F)F)O1 [8-OH-efavirenz]
- Autosampler stability (24 h) Av. Accuracy (%) (QC conc. 0,5 ng/ml): 86,73%
- 3x freeze-thaw Av. Accuracy (%) (QC conc. 0,5 ng/ml): 84,9%
- Benchtop stability (19 h) Ac. Accuracy (%) (QC conc. 0,5 ng/ml): 74,06%
- Autosampler stability (24 h) Av. Accuracy (%) (QC conc. 0,25 ng/ml): 86,81%
- 3x freeze-thaw Av. Accuracy (%) (QC conc. 0,25 ng/ml): 84,61%
- Benchtop stability (19 h) Ac. Accuracy (%) (QC conc. 0,25 ng/ml): 69,5%
- Autosampler stability (24 h) Av. Accuracy (%) (QC conc. 60 ng/ml): 86,15%
- 3x freeze-thaw Av. Accuracy (%) (QC conc. 60 ng/ml): 79,98%
- Benchtop stability (19 h) Ac. Accuracy (%) (QC conc. 60 ng/ml): 77,52%
- Autosampler stability (24 h) Av. Accuracy (%) (QC conc. 150 ng/ml): 78,85%
- 3x freeze-thaw Av. Accuracy (%) (QC conc. 150 ng/ml): 77,49%
- Benchtop stability (19 h) Ac. Accuracy (%) (QC conc. 150 ng/ml): 74,14%
- Autosampler stability (24 h) Av. Accuracy (%) (QC conc. 1,5 ng/ml): 88,49%
- 3x freeze-thaw Av. Accuracy (%) (QC conc. 1,5 ng/ml): 79,73%
- Benchtop stability (19 h) Ac. Accuracy (%) (QC conc. 1,5 ng/ml): 76,61%

Compound: COCC(O)c1ccc(OCC(O)CNC(C)C)cc1 (stereo not drawn) [OH-metoprolol]
- Autosampler stability (24 h) Av. Accuracy (%) (QC conc. 0,5 ng/ml): 101,05%
- 3x freeze-thaw Av. Accuracy (%) (QC conc. 0,5 ng/ml): 95,27%
- Benchtop stability (19 h) Ac. Accuracy (%) (QC conc. 0,5 ng/ml): 90,1%
- Autosampler stability (24 h) Av. Accuracy (%) (QC conc. 0,25 ng/ml): 90,24%
- 3x freeze-thaw Av. Accuracy (%) (QC conc. 0,25 ng/ml): 85,17%
- Benchtop stability (19 h) Ac. Accuracy (%) (QC conc. 0,25 ng/ml): 81,14%
- Autosampler stability (24 h) Av. Accuracy (%) (QC conc. 60 ng/ml): 97,01%
- 3x freeze-thaw Av. Accuracy (%) (QC conc. 60 ng/ml): 91,98%
- Benchtop stability (19 h) Ac. Accuracy (%) (QC conc. 60 ng/ml): 95,47%
- Autosampler stability (24 h) Av. Accuracy (%) (QC conc. 150 ng/ml): 88,29%
- 3x freeze-thaw Av. Accuracy (%) (QC conc. 150 ng/ml): 87,96%
- Benchtop stability (19 h) Ac. Accuracy (%) (QC conc. 150 ng/ml): 88,26%
- Autosampler stability (24 h) Av. Accuracy (%) (QC conc. 1,5 ng/ml): 96,56%
- 3x freeze-thaw Av. Accuracy (%) (QC conc. 1,5 ng/ml): 95,33%
- Benchtop stability (19 h) Ac. Accuracy (%) (QC conc. 1,5 ng/ml): 94,57%
